How the values were obtained:
[1] = only with lactic acid and orthophosphoric acid, of the many acids tested; no cyclodextrin; cited from earlier work
[2] = Stability and water solubility of the crystalline free base (background statement); assay type: physicochemical

- chemically and physically stable for (time) ([2]; crystalline form, 25° C. and 60% Relative Humidity (RH)): up to 3 years
- water solubility of the free base ([2]; for an aqueous solution formulation for intravenous or parenteral administration at therapeutic dosage levels): insufficiently water soluble
SMILES: CN(C)C1CCN(C(=O)c2ccc(NC(=O)Nc3ccc(-c4nc(N5CCOCC5)nc(N5CCOCC5)n4)cc3)cc2)CC1 [1-(4-{[4-(Dimethylamino)piperidin-1-yl]carbonyl}phenyl)-3-[4-(4,6-dimorpholin-4-yl-1,3,5-triazin-2-yl)phenyl]urea]
- concentration achieved as a clear solution [1]: ≥ 3000 µg/mL
